Laboratory results reported in ChEMBL document CHEMBL6182851, “Discovery of dual CDK4/6 and BRD4 inhibitor as apoptosis and autophagy inducers against NSCLC in vitro and in vivo” (Eur J Med Chem, 2025).

What was measured:
Experiment in all cases: cells
[1] = test system: A549; conditions: Homo sapiens, A549, 48 h
Description: Antitumor activity against human A549 cells assessed as inhibition of cell viability incubated for 48 hrs by MTT assay

[2] = test system: NCI-H1299; conditions: Homo sapiens, NCI-H1299, 48 h
Description: Antitumor activity against human NCI-H1299 cells assessed as inhibition of cell viability incubated for 48 hrs by MTT assay

[3] = test system: NCI-H460; conditions: Homo sapiens, NCI-H460, 48 h
Description: Antitumor activity against human NCI-H460 cells assessed as inhibition of cell viability incubated for 48 hrs by MTT assay

Structure (SMILES)	IC50 [1] [µM]	IC50 [2] [µM]	IC50 [3] [µM]
CN(C)C(=O)c1cc2cnc(Nc3ccc(N4CCN(C(=O)COc5ccc(-c6nc7ccc(F)cc7c(=O)[nH]6)cc5F)CC4)cn3)nc2n1C1CCCC1	> 40	> 40	> 40
COc1cc(OC)c2c(=O)[nH]c(-c3ccc(OCC(=O)N4CCN(c5ccc(Nc6ncc7cc(C(=O)N(C)C)n(C8CCCC8)c7n6)nc5)CC4)cc3)nc2c1	14.2	7.74	18.8
Cc1ccc2c(=O)[nH]c(-c3ccc(OCC(=O)N4CCN(c5ccc(Nc6ncc7cc(C(=O)N(C)C)n(C8CCCC8)c7n6)nc5)CC4)cc3)nc2c1	> 40	> 40	32.1
COc1cc(OC)c2c(=O)[nH]c(-c3cc(C)c(OCCCCC(=O)NNc4ncc5cc(C(=O)N(C)C)n(C6CCCC6)c5n4)c(C)c3)nc2c1	> 40	38.8	32.6
CN(C)C(=O)c1cc2cnc(Nc3ccc(N4CCN(C(=O)COc5ccc(-c6nc7cc(Cl)ccc7c(=O)[nH]6)cc5)CC4)cn3)nc2n1C1CCCC1	> 40	5.93	> 40
Cc1ccc2nc(-c3ccc(OCC(=O)N4CCN(c5ccc(Nc6ncc7cc(C(=O)N(C)C)n(C8CCCC8)c7n6)nc5)CC4)cc3)[nH]c(=O)c2c1	33.4	> 40	> 40
COc1cccc2nc(-c3ccc(OCC(=O)N4CCN(c5ccc(Nc6ncc7cc(C(=O)N(C)C)n(C8CCCC8)c7n6)nc5)CC4)cc3)[nH]c(=O)c12	18.8	> 40	> 40
COc1cc(-c2nc3ccc(F)cc3c(=O)[nH]2)ccc1OCC(=O)N1CCN(c2ccc(Nc3ncc4cc(C(=O)N(C)C)n(C5CCCC5)c4n3)nc2)CC1	> 40	> 40	16.4
CN(C)C(=O)c1cc2cnc(Nc3ccc(N4CCN(C(=O)COc5ccc(-c6nc7ccc(Cl)cc7c(=O)[nH]6)cc5)CC4)cn3)nc2n1C1CCCC1	31.2	38.7	> 40
COc1cc(OC)c2c(=O)[nH]c(-c3cc(C)c(OCCCC(=O)NNc4ncc5cc(C(=O)N(C)C)n(C6CCCC6)c5n4)c(C)c3)nc2c1	32.5	14.3	25.8
COc1cc(OC)c2c(=O)[nH]c(-c3cc(Br)c(OCC(=O)N4CCN(c5ccc(Nc6ncc7cc(C(=O)N(C)C)n(C8CCCC8)c7n6)nc5)CC4)c(Br)c3)nc2c1	16.8	26.8	38.8
CN(C)C(=O)c1cc2cnc(Nc3ccc(N4CCN(C(=O)COc5ccc(-c6nc7cc(C(F)(F)F)ccc7c(=O)[nH]6)cc5)CC4)cn3)nc2n1C1CCCC1	> 40	21.1	34.4
